These are literature values, as cited in US20190343774A1, “Compositions and Methods for Treating Neurologic Disorders” (PALUPA MEDICAL LTD., priority 2011, published 2019).

The series concerns relapsing multiple sclerosis.

Turning to “Tysabri®: monoclonal antibody; second-line MS drug”, under “known”, the “decrease of the possibility of disability accumulation” value was 43% and the “decrease on ARR” value was 68%. As to glatiramer acetate, the “reduction of the annualized relapse rate” value (two-year trials) is “about one third”.
